Assay results: ChEMBL document CHEMBL1201862, “PubChem BioAssay data set” (2004)
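48-hour exposure; five concentrations; linearly interpolated endpoints. GI50 = concentration required for 50% inhibition of growth.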 Active and inactive are the calls of the source. No stated cut-off is given here; in the data, active = GI50 up to about 1.1 µM and inactive = higher.

Key:
Test in all cases: NCI-60 cell line screen, 48 h
786-0 = system: 786-0
A549 = system: A549
CAKI-1 = system: CAKI-1
COLO 205 = system: COLO 205
DLD-1 = system: DLD-1
DMS-273 = system: DMS-273
EKVX = system: EKVX
HCC 2998 = system: HCC 2998
HCT-15 = system: HCT-15
HL-60 = system: HL-60
HOP-18 = system: HOP-18
IGROV-1 = system: IGROV-1
K562 = system: K562
KM12 = system: KM12
MOLT-4 = system: MOLT-4
NCI-H226 = system: NCI-H226
OVCAR-3 = system: OVCAR-3
OVCAR-8 = system: OVCAR-8
SK-MEL-2 = system: SK-MEL-2
SK-MEL-5 = system: SK-MEL-5
SN12C = system: SN12C
SR = system: SR
SW-620 = system: SW-620
TK-10 = system: TK-10
XF498 = system: XF498
A498 = system: A498
ACHN = system: ACHN
CCRF-CEM = system: CCRF-CEM
DMS-114 = system: DMS-114
HCT-116 = system: HCT-116
HOP-92 = system: HOP-92
HT-29 = system: HT-29
KM-20L2 = system: KM-20L2
LXFL 529 = system: LXFL 529
M14 = system: M14
M19-MEL = system: M19-MEL
Malme-3M = system: Malme-3M
NCI-H23 = system: NCI-H23
NCI-H460 = system: NCI-H460
NCI-H522 = system: NCI-H522
OVCAR-4 = system: OVCAR-4
RPMI-8226 = system: RPMI-8226
RXF 393 = system: RXF 393
SF-268 = system: SF-268
SF-295 = system: SF-295
SF-539 = system: SF-539
SK-MEL-28 = system: SK-MEL-28
SK-OV-3 = system: SK-OV-3
SNB-19 = system: SNB-19
SNB-75 = system: SNB-75
U-251 = system: U-251
UO-31 = system: UO-31
HOP-62 = system: HOP-62
LOX IMVI = system: LOX IMVI
OVCAR-5 = system: OVCAR-5
SNB-78 = system: SNB-78
UACC-257 = system: UACC-257
UACC-62 = system: UACC-62

Measured: GI50

CSc1nc(-c2ccc(Cl)cc2)c(C#N)c(=O)n1C1OC(COC(C)=O)C(OC(C)=O)C(OC(C)=O)C1OC(C)=O (stereo not drawn)
inactive: 786-0 > 100 µM | A549 > 100 µM | CAKI-1 > 100 µM | COLO 205 > 100 µM | DLD-1 > 100 µM | DMS-273 > 100 µM | EKVX > 100 µM | HCC 2998 > 100 µM | HL-60 > 100 µM | HOP-18 29.9 µM | IGROV-1 57.1 µM | K562 > 100 µM | KM12 > 100 µM | MOLT-4 > 75 µM | NCI-H226 33 µM | OVCAR-3 12.6 µM | OVCAR-8 > 100 µM | SK-MEL-2 53.8 µM | SK-MEL-5 > 100 µM | SN12C > 100 µM | SR > 100 µM | SW-620 > 100 µM | TK-10 > 100 µM | XF498 > 100 µM
> 100 µM: HCT-15

O=C1N(Cl)C(=O)C(c2ccc(Cl)cc2)(c2ccc(Cl)cc2)N1Cl
91.8 µM: HCT-15
inactive: 786-0 48.3 µM | A498 > 100 µM | A549 58.6 µM | ACHN 55.8 µM | CAKI-1 > 100 µM | CCRF-CEM 22.6 µM | COLO 205 41.8 µM | DLD-1 62.2 µM | DMS-114 39.9 µM | DMS-273 > 100 µM | EKVX > 100 µM | HCC 2998 > 100 µM | HCT-116 72.6 µM | HL-60 26.1 µM | HOP-18 > 100 µM | HOP-92 > 100 µM | HT-29 78.9 µM | IGROV-1 > 100 µM | K562 > 100 µM | KM-20L2 > 100 µM | KM12 48.8 µM | LXFL 529 63 µM | M14 34.4 µM | M19-MEL 39.7 µM | MOLT-4 56.8 µM | Malme-3M > 100 µM | NCI-H226 > 100 µM | NCI-H23 > 100 µM | NCI-H460 52.2 µM | NCI-H522 64.4 µM | OVCAR-3 > 100 µM | OVCAR-4 > 100 µM | OVCAR-8 71.4 µM | RPMI-8226 41.2 µM | RXF 393 22.6 µM | SF-268 > 100 µM | SF-295 55.3 µM | SF-539 > 100 µM | SK-MEL-28 > 100 µM | SK-MEL-2 > 100 µM | SK-MEL-5 > 100 µM | SK-OV-3 > 100 µM | SN12C 96.8 µM | SNB-19 > 100 µM | SNB-75 > 100 µM | SR 39.4 µM | SW-620 > 100 µM | TK-10 > 100 µM | U-251 > 100 µM | UO-31 92.5 µM | XF498 > 100 µM

Cc1cc2c(c(C(N)=O)c1C)-c1cc(Cl)cc(Cl)c1C2=O
inactive: 786-0 60.5 µM | A498 54.6 µM | ACHN > 100 µM | CCRF-CEM > 100 µM | COLO 205 > 100 µM | DLD-1 > 100 µM | DMS-114 > 100 µM | DMS-273 > 100 µM | EKVX 58.9 µM | HCC 2998 > 100 µM | HCT-116 > 100 µM | HL-60 > 100 µM | HOP-18 > 100 µM | HOP-62 > 100 µM | HOP-92 > 100 µM | HT-29 > 100 µM | IGROV-1 > 100 µM | K562 > 100 µM | KM-20L2 > 100 µM | KM12 > 100 µM | LOX IMVI 93.3 µM | LXFL 529 > 100 µM | M14 > 100 µM | M19-MEL > 100 µM | MOLT-4 > 100 µM | Malme-3M > 100 µM | NCI-H23 > 100 µM | NCI-H460 > 100 µM | NCI-H522 > 100 µM | OVCAR-3 > 100 µM | OVCAR-4 > 100 µM | OVCAR-5 > 100 µM | OVCAR-8 37.7 µM | RPMI-8226 > 100 µM | RXF 393 > 100 µM | SF-268 97.7 µM | SF-295 73.8 µM | SF-539 90.2 µM | SK-MEL-28 > 100 µM | SK-MEL-2 > 100 µM | SK-OV-3 57.4 µM | SN12C > 100 µM | SNB-19 79.4 µM | SNB-75 22.6 µM | SNB-78 41.3 µM | TK-10 > 100 µM | U-251 30.7 µM | UACC-257 > 100 µM | UACC-62 > 100 µM | UO-31 > 100 µM
> 100 µM: HCT-15
